# Experimental data as given in paper PMC7345905, “Microbial Metabolite Urolithin B Inhibits Recombinant Human Monoamine Oxidase A Enzyme” (Metabolites, 2020).
# Where “and” joins values, the source holds several entries; their conditions need not be identical. Identical values can stand only once.
# Legend:
# [1] = molecular target: T1, human recombinant MAO-B (Homo sapiens, UniProt P27338); assay: MAO-Glo MAO-B inhibition assay; assay type: biochemical; settings: N=1-3, listed as UroA
# T1 construct: purchased Sigma-Aldrich
# T1 sequence (P27338 1-520): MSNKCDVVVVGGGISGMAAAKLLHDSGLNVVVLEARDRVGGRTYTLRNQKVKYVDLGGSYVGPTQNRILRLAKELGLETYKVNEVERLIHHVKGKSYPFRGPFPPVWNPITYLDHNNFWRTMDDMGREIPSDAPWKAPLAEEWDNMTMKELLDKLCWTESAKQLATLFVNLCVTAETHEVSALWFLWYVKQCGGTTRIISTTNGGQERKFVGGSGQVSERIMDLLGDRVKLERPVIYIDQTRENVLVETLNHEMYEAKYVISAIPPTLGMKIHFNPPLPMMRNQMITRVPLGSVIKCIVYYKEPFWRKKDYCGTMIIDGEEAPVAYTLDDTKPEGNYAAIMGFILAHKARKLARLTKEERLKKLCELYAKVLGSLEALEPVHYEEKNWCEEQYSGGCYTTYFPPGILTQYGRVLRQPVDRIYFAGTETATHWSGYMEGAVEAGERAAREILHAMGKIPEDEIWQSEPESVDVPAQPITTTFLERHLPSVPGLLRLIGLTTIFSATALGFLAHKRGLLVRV
# Description: (§1) MAO inhibition assays were performed using a MAO-Glo™ Assay kit (Promega) according to the manufacturer’s instructions. Briefly, 1 µg of human recombinant MAO-A and MAO-B enzyme isoforms were incubated with 160 and 16 µM of MAO substrates, respectively. […] The enzyme reaction was quenched by the addition of a luciferin detection reagent. […] An equal volume of dimethyl sulfoxide (0.1%) was added to the enzyme assay as a control. After 1 h of incubation, the luminescence was measured with a multimode microplate reader (Synergy HT, BioTek, Winooski, VT, USA) to determine the MAO enzyme activities. Initially, the inhibition potential of all the test compounds was evaluated at a concentration of 100 μM. The control reaction (with no inhibitor) with vehicle (DMSO 0.1%) was set at 100% activity. To determine IC50 of the test compounds, the dose dependent enzyme assays were performed. We used range of 0.1 to 50 μM concentrations for MAO-A and 0.1 to 200 μM concentrations of test compounds for the MAO-B enzyme activities. The type of enzyme inhibition was determined using variable concentrations of MAO-A substrate (10–360 µM) and MAO-B substrate (2–64 µM) for the respective enzyme assay. […] A Lineweaver–Burk double reciprocal plot was generated, and the mode of inhibition was determined by visual examination of the plot. The slope of the reciprocal plots was plotted against the inhibitor concentrations and determined the x-axis intercept that represented the inhibitor constant, Ki value.
# [2] = molecular target: T2, human recombinant MAO-A (Homo sapiens, UniProt P21397); assay: MAO-A inhibition kinetics (variable substrate, Lineweaver–Burk plot); assay type: biochemical; design: Michaelis-Menten best-fit Vmax of MAO-A / Michaelis-Menten best-fit Vmax of MAO-A, Average: unit not given here; settings: for MAO-A assay signal (luminescence) / Transformed (reciprocal of MAO-A assay signal) / Michaelis-Menten best-fit Vmax of MAO-A: N=1-3
# T2 construct: purchased Sigma-Aldrich
# T2 sequence (P21397 1-527): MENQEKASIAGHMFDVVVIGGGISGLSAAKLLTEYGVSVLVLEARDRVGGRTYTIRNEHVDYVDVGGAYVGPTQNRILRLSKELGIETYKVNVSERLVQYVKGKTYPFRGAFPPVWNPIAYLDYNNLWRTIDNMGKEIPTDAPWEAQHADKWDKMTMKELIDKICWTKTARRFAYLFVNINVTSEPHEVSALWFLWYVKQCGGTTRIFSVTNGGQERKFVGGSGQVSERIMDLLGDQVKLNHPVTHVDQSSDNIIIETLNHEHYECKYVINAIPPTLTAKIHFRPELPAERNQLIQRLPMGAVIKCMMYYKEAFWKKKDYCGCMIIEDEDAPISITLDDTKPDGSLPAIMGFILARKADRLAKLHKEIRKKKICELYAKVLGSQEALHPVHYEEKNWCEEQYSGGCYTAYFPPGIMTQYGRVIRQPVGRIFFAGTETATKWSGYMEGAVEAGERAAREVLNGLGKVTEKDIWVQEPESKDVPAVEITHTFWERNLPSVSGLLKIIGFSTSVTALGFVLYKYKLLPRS
# Description: as §1
# All experiments were performed in triplicates and data are presented as mean ± standard error of the mean (SEM). The raw data are provided in Supplementary Data, Table S1. Enzyme kinetic data were analyzed using the Lineweaver–Burk plot. Statistical analysis was performed by Student’s t-test using GraphPad Prism Ver. 7.0 (GraphPad Prism Software Inc., San Diego, CA, USA).
# [3] = UroA 3 µM, MAO-A substrate 10 uM
# [4] = UroA 3 µM, MAO-A substrate 20 uM
# [5] = UroA 3 µM, MAO-A substrate 40 uM
# [6] = UroA 3 µM, MAO-A substrate 80 uM
# [7] = UroA 3 µM, MAO-A substrate 160 uM
# [8] = UroA 3 µM, MAO-A substrate 320 uM
# [9] = UroA 12 µM, MAO-A substrate 10 uM
# [10] = UroA 12 µM, MAO-A substrate 20 uM
# [11] = UroA 12 µM, MAO-A substrate 40 uM
# [12] = UroA 12 µM, MAO-A substrate 80 uM
# [13] = UroA 12 µM, MAO-A substrate 160 uM
compound,measurement,setting,value
"O=c1oc2cc(O)ccc2c2ccc(O)cc12 [UA, urolithin-A]","MAO-B enzyme assay, Percent of control",[1]; 0.1 µM,100.912% of control and 101.373% of control and 99.9795% of control
same,"MAO-B enzyme assay, Percent of control",[1]; 1 µM,93.9146% of control and 96.8343% of control and 95.7816% of control
same,"MAO-B enzyme assay, Percent of control",[1]; 10 µM,91.0665% of control and 92.3573% of control and 93.7097% of control
same,"MAO-B enzyme assay, Percent of control",[1]; 25 µM,94.1092% of control and 90.4928% of control
same,"MAO-B enzyme assay, Percent of control",[1]; 50 µM,81.2724% of control and 83.4341% of control and 89.5093% of control
same,"MAO-B enzyme assay, Percent of control","[1]; 100 µM (Figure 1C), 100 µM",76.7559% of control and 78.826% of control and 78.8568% of control
same,"MAO-B enzyme assay, Percent of control",[1]; 100 µM,71.1402% of control and 80.3709% of control and 83.4443% of control
same,"MAO-B enzyme assay, Percent of control",[1]; 200 µM,40.5081% of control and 42.2805% of control and 48.6733% of control
same,mode of inhibition of MAO-A,[2]; Lineweaver–Burk plot,mixed mode of inhibition
same,"MAO-A assay signal (luminescence), Average",[2]; [3],962.333
same,MAO-A assay signal (luminescence),[2]; [3],1018 and 920 and 949
same,"MAO-A assay signal (luminescence), Average",[2]; [4],1760.33
same,MAO-A assay signal (luminescence),[2]; [4],1739 and 1707 and 1835
same,"MAO-A assay signal (luminescence), Average",[2]; [5],3218.67
same,MAO-A assay signal (luminescence),[2]; [5],3261 and 3188 and 3207
same,"MAO-A assay signal (luminescence), Average",[2]; [6],6181.33
same,MAO-A assay signal (luminescence),[2]; [6],6231 and 6107 and 6206
same,"MAO-A assay signal (luminescence), Average",[2]; [7],11480.7
same,MAO-A assay signal (luminescence),[2]; [7],11583 and 11575 and 11284
same,"MAO-A assay signal (luminescence), Average",[2]; [8],20098
same,MAO-A assay signal (luminescence),[2]; [8],20331 and 20247 and 19716
same,"Transformed (reciprocal of MAO-A assay signal), Average","[2]; UroA 3 µM, [1/S] 0.003125",4.976e-5
same,Transformed (reciprocal of MAO-A assay signal),"[2]; UroA 3 µM, [1/S] 0.003125",4.9186e-5 and 4.939e-5 and 5.072e-5
same,"Transformed (reciprocal of MAO-A assay signal), Average","[2]; UroA 3 µM, [1/S] 0.00625",8.7103e-5
same,Transformed (reciprocal of MAO-A assay signal),"[2]; UroA 3 µM, [1/S] 0.00625",8.633e-5 and 8.639e-5 and 8.862e-5
same,"Transformed (reciprocal of MAO-A assay signal), Average","[2]; UroA 3 µM, [1/S] 0.0125",0.0001618
same,Transformed (reciprocal of MAO-A assay signal),"[2]; UroA 3 µM, [1/S] 0.0125",0.0001605 and 0.0001637 and 0.0001611
same,"Transformed (reciprocal of MAO-A assay signal), Average","[2]; UroA 3 µM, [1/S] 0.025",0.0003107
same,Transformed (reciprocal of MAO-A assay signal),"[2]; UroA 3 µM, [1/S] 0.025",0.0003067 and 0.0003137 and 0.0003118
same,"Transformed (reciprocal of MAO-A assay signal), Average","[2]; UroA 3 µM, [1/S] 0.05",0.0005681
same,Transformed (reciprocal of MAO-A assay signal),"[2]; UroA 3 µM, [1/S] 0.05",0.000575 and 0.0005858 and 0.000545
same,"Transformed (reciprocal of MAO-A assay signal), Average","[2]; UroA 3 µM, [1/S] 0.1",0.001039
same,Transformed (reciprocal of MAO-A assay signal),"[2]; UroA 3 µM, [1/S] 0.1",0.0009823 and 0.001087 and 0.001054
same,"MAO-A assay signal (luminescence), Average",[2]; [9],978.667
same,MAO-A assay signal (luminescence),[2]; [9],993 and 1030 and 913
same,"MAO-A assay signal (luminescence), Average",[2]; [10],1695.33
same,MAO-A assay signal (luminescence),[2]; [10],1731 and 1673 and 1682
same,"MAO-A assay signal (luminescence), Average",[2]; [11],3058.33
same,MAO-A assay signal (luminescence),[2]; [11],3191 and 2983 and 3001
same,"MAO-A assay signal (luminescence), Average",[2]; [12],5849.33
same,MAO-A assay signal (luminescence),[2]; [12],5814 and 5864 and 5870
same,"MAO-A assay signal (luminescence), Average",[2]; [13],10871
same,MAO-A assay signal (luminescence),[2]; [13],10945 and 10745 and 10923
same,"MAO-A assay signal (luminescence), Average","[2]; UroA 12 µM, MAO-A substrate 320 uM",12941.7
same,"Transformed (reciprocal of MAO-A assay signal), Average","[2]; UroA 12 µM, [1/S] 0.003125",7.727e-5
same,Transformed (reciprocal of MAO-A assay signal),"[2]; UroA 12 µM, [1/S] 0.003125",8.026e-5 and 7.7238e-5 and 7.452e-5
same,"Transformed (reciprocal of MAO-A assay signal), Average","[2]; UroA 12 µM, [1/S] 0.00625",9.199e-5
same,Transformed (reciprocal of MAO-A assay signal),"[2]; UroA 12 µM, [1/S] 0.00625",9.137e-5 and 9.307e-5 and 9.155e-5
same,"Transformed (reciprocal of MAO-A assay signal), Average","[2]; UroA 12 µM, [1/S] 0.0125",0.000171
same,Transformed (reciprocal of MAO-A assay signal),"[2]; UroA 12 µM, [1/S] 0.0125",0.000172 and 0.0001705 and 0.0001704
same,"Transformed (reciprocal of MAO-A assay signal), Average","[2]; UroA 12 µM, [1/S] 0.025",0.000327
same,Transformed (reciprocal of MAO-A assay signal),"[2]; UroA 12 µM, [1/S] 0.025",0.0003134 and 0.0003352 and 0.0003332
same,"Transformed (reciprocal of MAO-A assay signal), Average","[2]; UroA 12 µM, [1/S] 0.05",0.0005899
same,Transformed (reciprocal of MAO-A assay signal),"[2]; UroA 12 µM, [1/S] 0.05",0.0005777 and 0.0005977 and 0.0005945
same,"Transformed (reciprocal of MAO-A assay signal), Average","[2]; UroA 12 µM, [1/S] 0.1",0.001022
same,Transformed (reciprocal of MAO-A assay signal),"[2]; UroA 12 µM, [1/S] 0.1",0.001007 and 0.0009709 and 0.001095
same,"Michaelis-Menten best-fit Vmax of MAO-A, Average",[2]; in presence of UroA 3 uM,79114.7
same,Michaelis-Menten best-fit Vmax of MAO-A,[2]; in presence of UroA 3 uM,80970 and 83529 and 72845
same,"Michaelis-Menten best-fit Vmax of MAO-A, Average",[2]; in presence of UroA 12 uM,65883.7
same,Michaelis-Menten best-fit Vmax of MAO-A,[2]; in presence of UroA 12 uM,75205 and 61786 and 60660
same,Ki,[2]; x-axis intercept of slopes of Lineweaver–Burk plots vs inhibitor concentration,10 µM
